Measurements from patent US20250289804A1, “SUBSTITUTED INDOLE COMPOUNDS AND METHODS OF USE THEREOF” (NOVARTIS PHARMA AG, priority 2021, published 2025).
pIC50: −log10 of the molar value. Like-named read-outs stand apart in the source and are kept apart here.

Columns and labels:
[1] = system: MAC formation in normal human serum; assay: Human serum MAC formation assay (zymosan-coated plates, 50% normal human serum); conditions: 50% normal human serum with EGTA, 37° C. 30 minutes
Experimental: MAC deposition assay using normal human serum was applied to evaluate compound potency under physiologically relevant conditions. Black Maxisorp plates (Thermo Fisher, 437111) were coated with preactivated zymosan (Complement Technology, B400) at 0.5 mg/mL in carbonate buffer (pH 9.5, Sigma, C3041) at room temperature overnight. Compounds were serial diluted 3-fold in 100% DMSO for a 10-point dose-response curve. Normal human serum (Complement Technology, NHS) was diluted to 50% (v/v) with the gelatin buffer (4.2 mM HEPES pH 7.4, 0.15 mM CaCl2, 141 mM NaCl, 4.5 mM MgCl2, 0.1% gelatin) containing 20 mM EGTA or 20 mM EDTA. In conical bottom 96-well plates, 1 μL compound and 99 μL of serum-EGTA were mixed. Serum-EDTA was used as baseline control. The serum-compound mixture was incubated at room temperature for 15 minutes before being transferred to the washed zymosan plate for complement activation at 37° C. for 30 minutes. The reaction was terminated by decanting the reaction mixture and adding blocking buffer (Thermo Fisher, 37539) for 20 minutes. MAC formation on the ELISA plate was detected using 0.2 μg/mL mouse anti-human C9 neoepitope monoclonal antibody (Thermo Fisher, MA5-33373) diluted in phosphate-buffered saline with 0.05% Tween-20 (PBST). A goat anti-mouse IgG-HRP antibody (Thermo Fisher, A16072) was used at 1:2000 in PBST as secondary antibody. After washing, the reaction was developed using QuantaBlu (Thermo Fisher, 15169) for 20 minutes at room temperature. The plates were read at 325 nm excitation and 420 nm emission wavelengths. Percent inhibition values were generated using the baseline (EDTA-serum) and the maximum control (EGTA-serum). An IC50 for each compound was calculated using 4-parameter logistic regression.

human C3bBb = human C3bBb (Homo sapiens (Human), UniProt P00751); assay: Human C3bBb enzyme assay (C3a generation from C3, ELISA); assay type: biochemical; conditions: read-out: Human C3b:Bb IC50 Avg
Experimental: Compounds disclosed herein were evaluated for their potency to inhibit human C3bBb in a biochemical assay. To generate active C3bBb complex in vitro, purified human C3b (Complement Technology, A114), CFB (Complement Technology, A135) and CFD (Complement Technology, A136) were mixed in a 1:1:1 ratio to a final concentration of 1 μM each in the C3bBb assay buffer (PBS pH 7.4, 100 μM NiCl2, 0.05% (w/v) CHAPS). The reaction mix was incubated at room temperature for 30 minutes on a rotating platform. […] On the day of the enzyme assay, a reaction mixture containing 3 nM C3bBb complex and 1 μM purified human C3 (Complement Technology, A113) was prepared in the C3bBb assay buffer. Compounds were serial diluted 3-fold in 100% DMSO for a 10-point dose-response curve. A 0.5 μL aliquot of diluted compound solution was transferred to a conical bottom 96-well plate, before 49.5 μL of the reaction mix was added to each well to initiate the reaction. The plate was incubated for 1 hour at room temperature. […] The generation of C3a from C3 by the C3bBb complex was measured using the MicroVue C3a Plus EIA ELISA kit (Quidel, A031). The concentration of C3a from each well was calculated using a standard curve. Percent inhibition values were generated using the baseline (C3 only) and the maximum control (DMSO instead of compound), and IC50 of each compound was calculated using 4-parameter logistic regression.

[2] = starred values: assay conducted with 1 nM C3b:Bb enzyme
[3] = 3 nM C3bBb complex, 1 μM human C3, 1 hour room temperature

Chain of human C3bBb (P00751 260-764): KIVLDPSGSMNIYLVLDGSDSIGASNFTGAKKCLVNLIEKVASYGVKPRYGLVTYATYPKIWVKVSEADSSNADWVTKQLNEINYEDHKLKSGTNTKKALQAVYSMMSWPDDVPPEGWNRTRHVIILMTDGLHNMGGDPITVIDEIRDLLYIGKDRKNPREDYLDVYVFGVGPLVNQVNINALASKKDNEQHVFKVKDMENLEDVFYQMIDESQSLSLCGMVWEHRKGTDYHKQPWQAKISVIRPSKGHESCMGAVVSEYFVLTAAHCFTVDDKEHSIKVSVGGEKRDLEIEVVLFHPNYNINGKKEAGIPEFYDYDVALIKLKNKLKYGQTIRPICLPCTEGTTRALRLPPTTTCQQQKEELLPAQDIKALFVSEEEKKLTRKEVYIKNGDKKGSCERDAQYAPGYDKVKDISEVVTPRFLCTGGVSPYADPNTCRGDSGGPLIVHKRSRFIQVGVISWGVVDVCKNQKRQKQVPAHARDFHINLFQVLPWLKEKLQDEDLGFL
Chain of human C3bBb (P01024 23-667 partner): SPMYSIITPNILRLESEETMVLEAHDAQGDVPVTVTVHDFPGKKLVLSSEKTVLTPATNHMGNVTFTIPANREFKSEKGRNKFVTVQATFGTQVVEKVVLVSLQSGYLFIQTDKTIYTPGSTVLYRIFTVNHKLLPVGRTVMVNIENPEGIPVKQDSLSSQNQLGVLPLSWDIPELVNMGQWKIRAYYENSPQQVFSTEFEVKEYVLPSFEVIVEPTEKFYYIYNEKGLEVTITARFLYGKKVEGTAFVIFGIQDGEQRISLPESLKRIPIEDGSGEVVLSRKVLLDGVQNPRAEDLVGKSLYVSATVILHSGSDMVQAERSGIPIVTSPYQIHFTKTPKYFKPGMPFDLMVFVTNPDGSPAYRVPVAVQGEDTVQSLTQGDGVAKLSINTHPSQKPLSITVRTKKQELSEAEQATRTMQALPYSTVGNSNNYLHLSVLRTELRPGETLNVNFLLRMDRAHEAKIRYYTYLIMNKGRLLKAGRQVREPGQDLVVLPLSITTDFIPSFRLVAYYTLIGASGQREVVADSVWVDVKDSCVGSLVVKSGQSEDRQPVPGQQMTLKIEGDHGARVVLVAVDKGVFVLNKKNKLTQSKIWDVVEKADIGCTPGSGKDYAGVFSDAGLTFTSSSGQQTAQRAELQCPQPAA
Chain of human C3bBb (P01024 749-1663 partner): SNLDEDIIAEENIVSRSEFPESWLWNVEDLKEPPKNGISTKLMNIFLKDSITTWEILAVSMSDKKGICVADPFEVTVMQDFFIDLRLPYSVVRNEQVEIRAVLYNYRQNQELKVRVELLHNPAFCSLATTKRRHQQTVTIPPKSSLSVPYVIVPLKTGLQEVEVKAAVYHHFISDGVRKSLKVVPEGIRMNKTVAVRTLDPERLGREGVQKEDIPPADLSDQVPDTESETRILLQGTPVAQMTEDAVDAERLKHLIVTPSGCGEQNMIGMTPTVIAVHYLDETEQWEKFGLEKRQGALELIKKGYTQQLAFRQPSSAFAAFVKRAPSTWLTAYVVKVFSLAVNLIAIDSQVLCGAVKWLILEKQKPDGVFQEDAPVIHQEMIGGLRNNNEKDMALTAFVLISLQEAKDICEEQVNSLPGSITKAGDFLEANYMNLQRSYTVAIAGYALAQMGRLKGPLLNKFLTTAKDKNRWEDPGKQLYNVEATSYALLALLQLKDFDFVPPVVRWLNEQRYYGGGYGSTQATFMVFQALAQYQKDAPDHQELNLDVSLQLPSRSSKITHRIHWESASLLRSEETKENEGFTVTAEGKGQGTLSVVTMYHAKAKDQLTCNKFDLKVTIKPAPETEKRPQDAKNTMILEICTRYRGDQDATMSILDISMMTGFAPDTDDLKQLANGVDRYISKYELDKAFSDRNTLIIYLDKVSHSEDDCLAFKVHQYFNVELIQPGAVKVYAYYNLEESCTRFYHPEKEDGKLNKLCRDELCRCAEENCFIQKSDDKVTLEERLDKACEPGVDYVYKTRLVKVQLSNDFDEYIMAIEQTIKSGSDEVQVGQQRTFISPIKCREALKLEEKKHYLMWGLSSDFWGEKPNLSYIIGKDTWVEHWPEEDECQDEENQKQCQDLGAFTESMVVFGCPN

pIC50 (human C3bBb; [2])	pIC50 (human C3bBb; [3])	Compound	pIC50 [1]
> 8.00	–	COc1cc(C)c2[nH]ccc2c1CN1CC[C@]2(C[C@H]1c1ccc(C(=O)O)cc1)C[C@@H](C#N)C2 (single isomer, unassigned) [Example 55, 4-((2R,4s,6S)-2-cyano-7-((5-methoxy-7-methyl-1H-indol-4-yl)methyl)-7-azaspiro[3.5]nonan-6-yl)benzoic acid or 4-((2S,4r,6S)-2-cyano-7-((5-methoxy-7-methyl-1H-indol-4-yl)methyl)-7-azaspiro[3.5]nonan-6-yl)benzoic acid]	> 7.00
> 8.00	–	COc1cc(C)c2[nH]ccc2c1CN1CC[C@]2(C[C@H]1c1ccc(C(=O)O)cc1)C[C@@H](OC(F)F)C2 (single isomer, unassigned) [Example 56, 4-((2R,4s,6S)-2-(difluoromethoxy)-7-((5-methoxy-7-methyl-1H-indol-4-yl)methyl)-7-azaspiro[3.5]nonan-6-yl)benzoic acid or 4-((2S,4r,6S)-2-(difluoromethoxy)-7-((5-methoxy-7-methyl-1H-indol-4-yl)methyl)-7-azaspiro[3.5]nonan-6-yl)benzoic acid]	> 7.00
> 8.00	–	COc1cc(C)c2[nH]ccc2c1CN1CC[C@]2(C[C@H]1c1ccc(C(=O)O)cc1)C[C@@H](OC(F)F)C2 (single isomer, unassigned) [Example 57, 4-((2R,4s,6S)-2-(difluoromethoxy)-7-((5-methoxy-7-methyl-1H-indol-4-yl)methyl)-7-azaspiro[3.5]nonan-6-yl)benzoic acid or 4-((2S,4r,6S)-2-(difluoromethoxy)-7-((5-methoxy-7-methyl-1H-indol-4-yl)methyl)-7-azaspiro[3.5]nonan-6-yl)benzoic acid]	> 7.00
7.60 to 8.00	–	COc1cc(C)c2[nH]ccc2c1CN1CC[C@]2(C[C@H]1c1ccc(C(=O)O)cc1)C[C@@](C)(O)C2 (single isomer, unassigned) [Example 60, 4-((2R,4s,6S)-2-hydroxy-7-((5-methoxy-7-methyl-1H-indol-4-yl)methyl)-2-methyl-7-azaspiro[3.5]nonan-6-yl)benzoic acid or 4-((2S,4r,6S)-2-hydroxy-7-((5-methoxy-7-methyl-1H-indol-4-yl)methyl)-2-methyl-7-azaspiro[3.5]nonan-6-yl)benzoic acid]	6.70 to 7.00
> 8.00	–	COc1cc(C)c2[nH]ccc2c1CN1CC[C@]2(C[C@H]1c1ccc(C(=O)O)cc1)C[C@@H](F)C2 (single isomer, unassigned) [Example 62, 4-((2R,4s,6S)-2-fluoro-7-((5-methoxy-7-methyl-1H-indol-4-yl)methyl)-7-azaspiro[3.5]nonan-6-yl)benzoic acid or 4-((2S,4r,6S)-2-fluoro-7-((5-methoxy-7-methyl-1H-indol-4-yl)methyl)-7-azaspiro[3.5]nonan-6-yl)benzoic acid]	> 7.00
> 8.00	–	COc1cc(C)c2[nH]ccc2c1CN1CC[C@]2(C[C@H]1c1ccc(C(=O)O)cc1)C[C@@H](F)C2 (single isomer, unassigned) [Example 63, 4-((2R,4s,6S)-2-fluoro-7-((5-methoxy-7-methyl-1H-indol-4-yl)methyl)-7-azaspiro[3.5]nonan-6-yl)benzoic acid or 4-((2S,4r,6S)-2-fluoro-7-((5-methoxy-7-methyl-1H-indol-4-yl)methyl)-7-azaspiro[3.5]nonan-6-yl)benzoic acid]	> 7.00
> 8.00	–	COc1cc(C)c2[nH]ccc2c1CN1CC[C@@]2(C[C@H]1c1ccc(C(=O)O)cc1)CC2(F)F (stereo in doubt) [Example 30, 4-((3R,5S)- or ((3S,5S)-1,1-difluoro-6-((5-methoxy-7-methyl-1H-indol-4-yl)methyl)-6-azaspiro[2.5]octan-5-yl)benzoic acid]	6.70 to 7.00
7.60 to 8.00	–	COc1cc(C)c2[nH]ccc2c1CN1CC[C@]2(C[C@H]1c1ccc(C(=O)O)cc1)C[C@@H](O)C2 (stereo in doubt) [Example 64, 4-((2R,4s,6S)-4-(2-hydroxy-7-((5-methoxy-7-methyl-1H-indol-4-yl)methyl)-7-azaspiro[3.5]nonan-6-yl)benzoic acid and 4-((2S,4r,6S)-2-hydroxy-7-((5-methoxy-7-methyl-1H-indol-4-yl)methyl)-7-azaspiro[3.5]nonan-6-yl)benzoic acid]	6.52 to 6.70
> 8.00	–	COc1cc(C)c2[nH]ccc2c1CN1CC[C@H](NCC(F)F)C[C@H]1c1ccc(C(=O)O)cc1 [Example 22, 4-((2S,4S)-4-((2,2-difluoroethyl)amino)-1-((5-methoxy-7-methyl-1H-indol-4-yl)methyl)piperidin-2-yl)benzoic acid]	6.70 to 7.00

The next lines start with the compound.

Compound	pIC50 (human C3bBb; [2])	pIC50 (human C3bBb; [3])	pIC50 [1]
COc1cc(C)c2[nH]ccc2c1CN1CC[C@H](n2cc(F)cn2)C[C@H]1c1ccc(C(=O)O)cc1 [Example 1, 4-((2S,4S)-4-(4-fluoro-1H-pyrazol-1-yl)-1-((5-methoxy-7-methyl-1H-indol-4-yl)methyl)piperidin-2-yl)benzoic acid]	–	7.00 to 7.30	< 6.30
COc1cc(C)c2[nH]ccc2c1CN1CC[C@H](n2cc(C(F)(F)F)cn2)C[C@H]1c1ccc(C(=O)O)cc1 [Example 4, 4-((2S,4S)-1-((5-methoxy-7-methyl-1H-indol-4-yl)methyl)-4-(4-(trifluoromethyl)-1H-pyrazol-1-yl)piperidin-2-yl)benzoic acid]	–	> 8.00	6.52 to 6.70
COc1cc(C)c2[nH]ccc2c1CN1CC[C@H](n2cc(Cl)cn2)C[C@H]1c1ccc(C(=O)O)cc1 [Example 8]	> 8.00	–	> 7.00
COc1cc(C)c2[nH]ccc2c1CN1CC[C@H](n2cc(C#N)cn2)C[C@H]1c1ccc(C(=O)O)cc1 [Example 10, 4-((2S,4S)-4-(4-cyano-1H-pyrazol-1-yl)-1-((5-methoxy-7-methyl-1H-indol-4-yl)methyl)piperidin-2-yl)benzoic acid]	–	7.00 to 7.30	6.30 to 6.52
COc1cc(C)c2[nH]ccc2c1CN1CC[C@H](N2CCCC2=O)C[C@H]1c1ccc(C(=O)O)cc1 [Example 13, 4-((2S,4S)-1-((5-methoxy-7-methyl-1H-indol-4-yl)methyl)-4-(2-oxopyrrolidin-1-yl)piperidin-2-yl)benzoic acid]	7.00 to 7.30	–	6.70 to 7.00
COc1cc(C)c2[nH]ccc2c1CN1CC[C@H](NCC(F)(F)F)C[C@H]1c1ccc(C(=O)O)cc1 [Example 15, 4-((2S,4S)-1-((5-methoxy-7-methyl-1H-indol-4-yl)methyl)-4-((2,2,2-trifluoroethyl)amino)piperidin-2-yl)benzoic acid]	> 8.00	–	> 7.00
COc1cc(C)c2[nH]ccc2c1CN1CC[C@H](NC2COC2)C[C@H]1c1ccc(C(=O)O)cc1 [Example 18, 4-((2S,4S)-1-((5-methoxy-7-methyl-1H-indol-4-yl)methyl)-4-(oxetan-3-ylamino)piperidin-2-yl)benzoic acid]	> 8.00	–	6.70 to 7.00
COc1cc(C)c2[nH]ccc2c1CN1CC[C@H](NC2CC(F)(F)C2)C[C@H]1c1ccc(C(=O)O)cc1 [Example 19, 4-((2S,4S)-4-((3,3-difluorocyclobutyl)amino)-1-((5-methoxy-7-methyl-1H-indol-4-yl)methyl)piperidin-2-yl)benzoic acid]	> 8.00	–	> 7.00
COc1cc(C)c2[nH]ccc2c1CN1CC[C@H](NC2CCC2)C[C@H]1c1ccc(C(=O)O)cc1 [Example 20, 4-((2S,4S)-4-(cyclobutylamino)-1-((5-methoxy-7-methyl-1H-indol-4-yl)methyl)piperidin-2-yl)benzoic acid]	–	7.30 to 7.60	6.30 to 6.52
COc1cc(C)c2[nH]ccc2c1CN1CC[C@H](NC23CC(C2)C3)C[C@H]1c1ccc(C(=O)O)cc1 [Example 21, 4-((2S,4S)-4-(bicyclo[1.1.1]pentan-1-ylamino)-1-((5-methoxy-7-methyl-1H-indol-4-yl)methyl)pyiperidin-2-yl)benzoic acid]	–	< 7.00	6.70 to 7.00
